Assay results: patent publication US10770169B2, “Method of providing a treatment to a subject based on a dynamic pathway map” (THE REGENTS OF THE UNIVERSITY OF CALIFORNIA, priority 2010, dated 2020)

Tested on: panel of 55 breast cancer cell lines
Assay: Cell growth inhibition assay (Cell Titer Glo, 72 h, 9 doses; GI50, TGI, LC50)
Assay type: cell-based, human
Conditions: value is the negative log10 of mol/L
[1] = AU565 cell line, censored GI50 values
[2] = BT474 cell line, censored GI50 values
[3] = CAMA1 cell line, censored GI50 values
[4] = HCC1143 cell line, censored GI50 values
[5] = HCC1187 cell line, censored GI50 values
[6] = HCC1395 cell line, censored GI50 values
[7] = HCC1419 cell line, censored GI50 values
[8] = HCC1428 cell line, censored GI50 values
[9] = HCC1500 cell line, censored GI50 values

With `O=C1C(Cl)=C(NCCN2CCOCC2)C(=O)c2ncccc21` [NSC 663284] as the compound, how does the GI50 (600MPE cell line, censored GI50 values) read?
Its GI50 is 5.34.

And the GI50 [1]?
Its GI50 is 5.81.

What about the GI50 (BT20 cell line, censored GI50 values) of the same compound?
Its GI50 is 5.48.

What about the GI50 [2] of the same compound?
The GI50 was 5.56.

What about the GI50 (BT483 cell line, censored GI50 values) of the same compound?
The GI50 was 6.02.

And the GI50 [3]?
Its GI50 is 5.58.

And the GI50 [4]?
Its GI50 is 5.70.

And the GI50 [5]?
Its GI50 is 5.68.

What about the GI50 [6] of the same compound?
The GI50 was 6.16.

And the GI50 [7]?
Its GI50 is 5.72.

And the GI50 [8]?
The GI50 was 5.59.

And the GI50 [9]?
The GI50 was 5.42.

And the GI50 (HCC1937 cell line, censored GI50 values)?
The GI50 was 6.07.

What about the GI50 (HCC1954 cell line, censored GI50 values) of the same compound?
The GI50 was 5.22.

And the GI50 (cell line 600MPE)?
The GI50 was 5.34.

And the GI50 (cell line AU565)?
Its GI50 is 5.81.

And the GI50 (cell line BT20)?
Its GI50 is 5.48.

And the GI50 (cell line BT474)?
Its GI50 is 5.56.

And the GI50 (cell line BT483)?
Its GI50 is 6.02.

And the GI50 (cell line CAMA1)?
The GI50 was 5.58.

What about the GI50 (cell line HCC38) of the same compound?
The GI50 was 5.64.

And the GI50 (cell line HCC70)?
The GI50 was 5.51.

What about the GI50 (cell line HCC1143) of the same compound?
The GI50 was 5.70.

What about the GI50 (cell line HCC1187) of the same compound?
Its GI50 is 5.68.

What about the GI50 (cell line HCC1395) of the same compound?
Its GI50 is 6.16.

What about the GI50 (cell line HCC1419) of the same compound?
Its GI50 is 5.72.

And the GI50 (cell line HCC1428)?
The GI50 was 5.59.

What about the GI50 (cell line HCC1500) of the same compound?
Its GI50 is 5.42.

What about the GI50 (cell line HCC1937) of the same compound?
The GI50 was 6.07.

And the GI50 (cell line HCC1954)?
The GI50 was 5.22.

And the GI50 (cell line HCC2185)?
The GI50 was 5.96.

What about the GI50 (cell line HCC3153) of the same compound?
Its GI50 is 5.73.

And the GI50 (cell line LY2)?
Its GI50 is 6.27.

What about the GI50 (cell line MCF7) of the same compound?
Its GI50 is 5.43.

What about the GI50 (cell line MDAMB134V) of the same compound?
Its GI50 is 5.24.

And the GI50 (cell line MDAMB175V)?
The GI50 was 5.22.

What about the GI50 (cell line MDAMB361) of the same compound?
The GI50 was 5.14.

What about the GI50 (cell line MDAMB415) of the same compound?
The GI50 was 5.59.

What about the GI50 (cell line MDAMB453) of the same compound?
The GI50 was 5.26.

And the GI50 (cell line MDAMB468)?
Its GI50 is 5.19.

What about the GI50 (cell line SKBR3) of the same compound?
The GI50 was 5.86.

And the GI50 (cell line SUM52PE)?
The GI50 was 5.61.

And the GI50 (cell line SUM149PT)?
Its GI50 is 5.74.

And the GI50 (cell line SUM159PT)?
The GI50 was 5.64.

And the GI50 (cell line SUM185PE)?
The GI50 was 6.50.

What about the GI50 (cell line SUM225CWN) of the same compound?
The GI50 was 5.66.

What about the GI50 (cell line SUM1315MO) of the same compound?
Its GI50 is 6.00.

And the GI50 (cell line T47D)?
Its GI50 is 5.19.

And the GI50 (cell line UACC812)?
Its GI50 is 5.43.

What about the GI50 (cell line ZR75B) of the same compound?
The GI50 was 5.26.

And the GI50 (cell line ZR751)?
Its GI50 is 5.73.

What does the source list for `NS(=O)(=O)c1ccc(Nc2nc(OCC3CCCCC3)c3[nH]cnc3n2)cc1` [NU6102]?
GI50 [1]: 4.64; GI50 [2]: 4.56; GI50 [3]: 4.91; GI50 [4]: 4.87; GI50 [5]: 5.11; GI50 [6]: 5.24; GI50 [7]: 4.54; GI50 [8]: 4.87; GI50 [9]: 4.78; GI50 (HCC1806 cell line, censored GI50 values): 4.64; GI50 (cell line AU565): 4.64; GI50 (cell line BT20): 4.23; GI50 (cell line BT474): 4.56; GI50 (cell line BT483): 4.18; GI50 (cell line CAMA1): 4.91; GI50 (cell line HCC38): 5.03; GI50 (cell line HCC70): 4.69; GI50 (cell line HCC1143): 4.87; GI50 (cell line HCC1187): 5.11; GI50 (cell line HCC1395): 5.24; GI50 (cell line HCC1419): 4.54; GI50 (cell line HCC1428): 4.87; GI50 (cell line HCC1500): 4.78; GI50 (cell line HCC1806): 4.64; GI50 (cell line HCC1937): 4.27; GI50 (cell line HCC1954): 4.34; GI50 (cell line HCC2185): 4.85; GI50 (cell line HCC3153): 4.81; GI50 (cell line LY2): 4.32; GI50 (cell line MCF7): 4.39; GI50 (cell line MDAMB134V): 4.34; GI50 (cell line MDAMB175V): 4.26; GI50 (cell line MDAMB361): 4.77; GI50 (cell line MDAMB415): 4.46; GI50 (cell line MDAMB436): 4.28; GI50 (cell line MDAMB453): 4.91; GI50 (cell line MDAMB468): 4.85; GI50 (cell line SKBR3): 4.51; GI50 (cell line SUM52PE): 5.27; GI50 (cell line SUM149PT): 5.08; GI50 (cell line SUM159PT): 4.90; GI50 (cell line SUM185PE): 5.53; GI50 (cell line SUM225CWN): 4.30; GI50 (cell line SUM1315MO): 5.40; GI50 (cell line T47D): 4.82; GI50 (cell line UACC812): 4.42; GI50 (cell line ZR75B): 4.85; GI50 (cell line ZR751): 4.76

What does the source list for `COc1ccc(C2=N[C@@H](c3ccc(Cl)cc3)[C@@H](c3ccc(Cl)cc3)N2C(=O)N2CCNC(=O)C2)c(OC(C)C)c1` [Nutlin 3a]?
GI50 (cell line 600MPE): 4.32; GI50 (cell line AU565, censored GI50 values): 4.79; GI50 (cell line AU565): 4.79; GI50 (cell line BT20, censored GI50 values): 4.47; GI50 (cell line BT20): 4.47; GI50 (cell line BT474, censored GI50 values): 4.39; GI50 (cell line BT474): 4.39; GI50 (cell line BT483, censored GI50 values): 5.19; GI50 (cell line BT483): 5.19; GI50 (cell line BT549): 4.35; GI50 (cell line CAMA1): 4.30; GI50 (cell line HCC38, censored GI50 values): 4.66; GI50 (cell line HCC38): 4.66; GI50 (cell line HCC70, censored GI50 values): 4.73; GI50 (cell line HCC70): 4.73; GI50 (cell line HCC202, censored GI50 values): 5.02; GI50 (cell line HCC202): 5.02; GI50 (cell line HCC1143, censored GI50 values): 4.67; GI50 (cell line HCC1143): 4.67; GI50 (cell line HCC1187, censored GI50 values): 4.68; GI50 (cell line HCC1187): 4.68; GI50 (cell line HCC1395, censored GI50 values): 4.65; GI50 (cell line HCC1395): 4.65; GI50 (cell line HCC1419, censored GI50 values): 4.39; GI50 (cell line HCC1419): 4.39; GI50 (cell line HCC1428, censored GI50 values): 4.50; GI50 (cell line HCC1428): 4.50; GI50 (cell line HCC1500, censored GI50 values): 4.57; GI50 (cell line HCC1500): 4.57; GI50 (cell line HCC1806): 4.29; GI50 (cell line HCC1937, censored GI50 values): 4.63; GI50 (cell line HCC1937): 4.63; GI50 (cell line HCC1954, censored GI50 values): 4.76; GI50 (cell line HCC1954): 4.76; GI50 (cell line HCC2185, censored GI50 values): 4.81; GI50 (cell line HCC2185): 4.81; GI50 (cell line HCC3153, censored GI50 values): 4.44; GI50 (cell line HCC3153): 4.44; GI50 (cell line LY2, censored GI50 values): 5.35; GI50 (cell line LY2): 5.35; GI50 (cell line MCF7, censored GI50 values): 5.24; GI50 (cell line MCF7): 5.24; GI50 (cell line MDAMB134V): 4.76; GI50 (cell line MDAMB134VI, censored GI50 values): 4.76; GI50 (cell line MDAMB157, censored GI50 values): 4.45; GI50 (cell line MDAMB157): 4.45; GI50 (cell line MDAMB175V): 5.08; GI50 (cell line MDAMB175VII, censored GI50 values): 5.08; GI50 (cell line MDAMB231): 4.18; GI50 (cell line MDAMB361): 4.23; GI50 (cell line MDAMB415, censored GI50 values): 4.59; GI50 (cell line MDAMB415): 4.59; GI50 (cell line MDAMB436): 4.30; GI50 (cell line MDAMB453): 4.32; GI50 (cell line MDAMB468, censored GI50 values): 4.44; GI50 (cell line MDAMB468): 4.44; GI50 (cell line SKBR3): 4.32; GI50 (cell line SUM52PE, censored GI50 values): 4.73; GI50 (cell line SUM52PE): 4.73; GI50 (cell line SUM149PT, censored GI50 values): 4.56; GI50 (cell line SUM149PT): 4.56; GI50 (cell line SUM159PT, censored GI50 values): 4.78; GI50 (cell line SUM159PT): 4.78; GI50 (cell line SUM185PE, censored GI50 values): 4.54; GI50 (cell line SUM185PE): 4.54; GI50 (cell line SUM225CWN, censored GI50 values): 4.69; GI50 (cell line SUM225CWN): 4.69; GI50 (cell line SUM1315MO2, censored GI50 values): 4.67; GI50 (cell line SUM1315MO): 4.67; GI50 (cell line T47D, censored GI50 values): 4.51; GI50 (cell line T47D): 4.51; GI50 (cell line UACC812, censored GI50 values): 4.45; GI50 (cell line UACC812): 4.45; GI50 (cell line UACC893, censored GI50 values): 4.69; GI50 (cell line UACC893): 4.69; GI50 (cell line ZR75B, censored GI50 values): 5.69; GI50 (cell line ZR75B): 5.69; GI50 (cell line ZR751, censored GI50 values): 5.51; GI50 (cell line ZR751): 5.51
